Results as given in patent US5210193A, “Piperazine derivatives” (American Cyanamid Company, priority 1990, dated 1993).
Values after ≈ are worked out from the molar mass of the structure shown. Where two headings read alike, the source gives them in different places.

How the values were obtained:
Test in all cases: in vitro antibacterial MIC, agar plate dilution
Format in all cases: cell-based
Citrobacter div. K 82-24 = conditions: Citrobacter, DIV.K8224, 18 h, 35° C., read-out: MIC
Procedure, shortened: (§1)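 Agar plate dilution on Mueller-Hinton agar, inoculum approximately 10^4 CFU per organism applied with a Steers replicator. MIC (mcg/ml) is the lowest compound concentration inhibiting visible growth after 18 hours at 35° C.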

[1] = test system: Enterobacter cloacae K 84-10; conditions: Enterobacter cloacae, K8410, 18 h, 35° C., read-out: MIC
Procedure, shortened: as §1

[2] = test system: Enterobacter cloacae VGH 84-39; conditions: Enterobacter cloacae, VGH8439, 18 h, 35° C., read-out: MIC
Procedure, shortened: as §1

[3] = test system: Escherichia coli ATCC 25922; conditions: 35° C.
Procedure, shortened: as §1

[4] = test system: Escherichia coli CMC 84-11; conditions: Escherichia coli, CMC8411, 18 h, 35° C., read-out: MIC
Procedure, shortened: as §1

[5] = test system: Escherichia coli CMC 84-50; conditions: Escherichia coli, CMC8450, 18 h, 35° C., read-out: MIC
Procedure, shortened: as §1

Escherichia coli LL 311 = conditions: Escherichia coli, LL311, 18 h, 35° C., read-out: MIC
Procedure, shortened: as §1

[6] = test system: Escherichia coli MOR 84-20; conditions: Escherichia coli, MOR8420, 18 h, 35° C., read-out: MIC
Procedure, shortened: as §1

[7] = test system: Klebsiella pneumoniae CMC 84-31; conditions: Klebsiella pneumoniae, CMC8431, 18 h, 35° C., read-out: MIC
Procedure, shortened: as §1

[8] = test system: Klebsiella pneumoniae IO 83-5; conditions: Klebsiella pneumoniae, IO835, 18 h, 35° C., read-out: MIC
Procedure, shortened: as §1

[9] = test system: Klebsiella pneumoniae MOR 84-24; conditions: Klebsiella pneumoniae, MOR8424, 18 h, 35° C., read-out: MIC
Procedure, shortened: as §1

[10] = test system: Morganella morganii CMC 84-37; conditions: Morganella morganii, CMC8437, 18 h, 35° C., read-out: MIC
Procedure, shortened: as §1

[11] = test system: Morganella morganii CMC 84-38; conditions: Morganella morganii, CMC8438, 18 h, 35° C., read-out: MIC
Procedure, shortened: as §1

[12] = test system: Proteus rettgeri CMC 84-41; conditions: Providencia rettgeri, CMC8441, 18 h, 35° C., read-out: MIC
Procedure, shortened: as §1

[13] = test system: Proteus rettgeri IO 83-21; conditions: Providencia rettgeri, IO8321, 18 h, 35° C., read-out: MIC
Procedure, shortened: as §1

[14] = test system: Pseudomonas aeruginosa K 84-16; conditions: Pseudomonas aeruginosa, K8416, 18 h, 35° C., read-out: MIC
Procedure, shortened: as §1

[15] = test system: Pseudomonas aeruginosa LL-1244; conditions: Pseudomonas aeruginosa, LL1244, 18 h, 35° C., read-out: MIC
Procedure, shortened: as §1

[16] = test system: Pseudomonas aeruginosa VGH 84-3; conditions: Pseudomonas aeruginosa, VGH843, 18 h, 35° C., read-out: MIC
Procedure, shortened: as §1

[17] = test system: Pseudomonas aeruginosa VGH 84-4; conditions: Pseudomonas aeruginosa, VGH844, 18 h, 35° C., read-out: MIC
Procedure, shortened: as §1

[18] = test system: Serratia marcescens CMC 83-74; conditions: Serratia marcescens, CMC8374, 18 h, 35° C., read-out: MIC
Procedure, shortened: as §1

[19] = test system: Serratia marcescens IO 83-63; conditions: IO8363, 18 hours, 35° C.
Procedure, shortened: as §1

[20] = test system: Serratia marcescens MOR 84-41; conditions: Serratia marcescens, MOR8441, 18 h, 35° C., read-out: MIC
Procedure, shortened: as §1

[21] = test system: Serratia marcescens VGH 84-30; conditions: Serratia marcescens, VGH8430, 18 h, 35° C., read-out: MIC
Procedure, shortened: as §1

[22] = test system: Staphylococcus aureus ATTC 29213; conditions: 35° C.
Procedure, shortened: as §1

[23] = test system: Staphylococcus aureus K 82-26; conditions: Staphylococcus aureus, K8226, 18 h, 35° C., read-out: MIC
Procedure, shortened: as §1

[24] = test system: Staphylococcus aureus VGH 84-45; conditions: Staphylococcus aureus, VGH8445, 18 h, 35° C., read-out: MIC
Procedure, shortened: as §1

[25] = test system: Staphylococcus aureus VGH 84-47; conditions: Staphylococcus aureus, VGH8447, 18 h, 35° C., read-out: MIC
Procedure, shortened: as §1

[26] = test system: Streptococcus faecalis UCI 85-19; conditions: Enterococcus faecalis, UCI8519, 18 h, 35° C., read-out: MIC
Procedure, shortened: as §1

[27] = test system: Streptococcus faecalis UCI 85-30; conditions: Enterococcus faecalis, UCI8530, 18 h, 35° C., read-out: MIC
Procedure, shortened: as §1

[28] = test system: Streptococcus faecalis VGH 84-65; conditions: Enterococcus faecalis, VGH8465, 18 h, 35° C., read-out: MIC
Procedure, shortened: as §1

[29] = test system: Streptococcus faecalis VGH 84-69; conditions: Enterococcus faecalis, VGH8469, 18 h, 35° C., read-out: MIC
Procedure, shortened: as §1

[30] = test system: Staphylococcus aureus CMC 83-131; conditions: Staphylococcus aureus, CMC83131, 18 h, 35° C., read-out: MIC
Procedure, shortened: as §1

[31] = Escherichia coli, ATCC25922, 18 h, read-out: MIC
[32] = Staphylococcus aureus, ATTC29213, 18 h, read-out: MIC

MIC (Citrobacter div. K 82-24) | MIC [1] | MIC [2] | MIC [3, 31] | MIC [4] | MIC [5] | MIC (Escherichia coli LL 311) | MIC [6] | MIC [7] | MIC [8] | MIC [9] | MIC [11] | MIC [12] | MIC [13] | MIC [14] | MIC [15] | MIC [16] | MIC [17] | MIC [18] | MIC [20] | Compound | other results
0.06 µg/mL (≈ 0.151 µM) | 0.06 µg/mL (≈ 0.151 µM) | 0.12 µg/mL (≈ 0.302 µM) | 0.06 µg/mL (≈ 0.151 µM) | 0.03 µg/mL (≈ 0.0755 µM) | 0.12 µg/mL (≈ 0.302 µM) | 0.03 µg/mL (≈ 0.0755 µM) | 0.06 µg/mL (≈ 0.151 µM) | 0.12 µg/mL (≈ 0.302 µM) | 0.25 µg/mL (≈ 0.629 µM) | 0.25 µg/mL (≈ 0.629 µM) | 0.25 µg/mL (≈ 0.629 µM) | 0.12 µg/mL (≈ 0.302 µM) | 0.5 µg/mL (≈ 1.26 µM) | 4 µg/mL (≈ 10.1 µM) | 2 µg/mL (≈ 5.03 µM) | 16 µg/mL (≈ 40.3 µM) | 2 µg/mL (≈ 5.03 µM) | 8 µg/mL (≈ 20.1 µM) | 0.25 µg/mL (≈ 0.629 µM) | O=C(O)c1cn(C2CC2)c2cc(N3CCNC(c4ccoc4)C3)c(F)cc2c1=O (centres unmarked) [Example 92] | MIC ([3]; 18 hours): 0.12 µg/mL (≈ 0.302 µM); MIC [10]: 0.06 µg/mL (≈ 0.151 µM); MIC [19]: 1 µg/mL (≈ 2.52 µM); MIC [21]: 4 µg/mL (≈ 10.1 µM); MIC ([22]; 18 hours): 0.12 µg/mL (≈ 0.302 µM); MIC [22, 32]: 0.06 µg/mL (≈ 0.151 µM); MIC [23]: 0.12 µg/mL (≈ 0.302 µM); MIC [24]: 0.03 µg/mL (≈ 0.0755 µM); MIC [25]: 0.12 µg/mL (≈ 0.302 µM); MIC [26]: 1 µg/mL (≈ 2.52 µM); MIC [27]: 1 µg/mL (≈ 2.52 µM); MIC [28]: 0.5 µg/mL (≈ 1.26 µM); MIC [29]: 1 µg/mL (≈ 2.52 µM)
0.25 µg/mL (≈ 0.649 µM) | 0.25 µg/mL (≈ 0.649 µM) | 0.5 µg/mL (≈ 1.3 µM) | 0.25 µg/mL (≈ 0.649 µM) | 0.12 µg/mL (≈ 0.311 µM) | 0.25 µg/mL (≈ 0.649 µM) | 0.12 µg/mL (≈ 0.311 µM) | 0.25 µg/mL (≈ 0.649 µM) | 0.5 µg/mL (≈ 1.3 µM) | 1 µg/mL (≈ 2.59 µM) | 1 µg/mL (≈ 2.59 µM) | 0.25 µg/mL (≈ 0.649 µM) | 0.25 µg/mL (≈ 0.649 µM) | 1 µg/mL (≈ 2.59 µM) | 16 µg/mL (≈ 41.5 µM) | 8 µg/mL (≈ 20.8 µM) | > 16 µg/mL | 4 µg/mL (≈ 10.4 µM) | 16 µg/mL (≈ 41.5 µM) | 0.5 µg/mL (≈ 1.3 µM) | CCn1cc(C(=O)O)c(=O)c2cc(F)c(N3CCNC(c4ccoc4)C3)cc21 (centres unmarked) [Example 94, 1-Ethyl-6-fluoro-1,4-dihydro-4-oxo-7-[3-(3-furanyl)-1-piperazinyl]-3-quinolinecarboxylic acid] | MIC ([3]; 18 hours): 0.5 µg/mL (≈ 1.3 µM); MIC [10]: 0.12 µg/mL (≈ 0.311 µM); MIC [19]: 1 µg/mL (≈ 2.59 µM); MIC [21]: 8 µg/mL (≈ 20.8 µM); MIC [23]: 0.25 µg/mL (≈ 0.649 µM); MIC [24]: 0.12 µg/mL (≈ 0.311 µM); MIC [25]: 0.25 µg/mL (≈ 0.649 µM); MIC [26]: 4 µg/mL (≈ 10.4 µM); MIC [27]: 4 µg/mL (≈ 10.4 µM); MIC [28]: 2 µg/mL (≈ 5.19 µM); MIC [29]: 2 µg/mL (≈ 5.19 µM)
4 µg/mL (≈ 10.1 µM) | 2 µg/mL (≈ 5.05 µM) | 4 µg/mL (≈ 10.1 µM) | 1 µg/mL (≈ 2.52 µM) | 2 µg/mL (≈ 5.05 µM) | 4 µg/mL (≈ 10.1 µM) | 1 µg/mL (≈ 2.52 µM) | 2 µg/mL (≈ 5.05 µM) | 4 µg/mL (≈ 10.1 µM) | 8 µg/mL (≈ 20.2 µM) | 8 µg/mL (≈ 20.2 µM) | 2 µg/mL (≈ 5.05 µM) | 2 µg/mL (≈ 5.05 µM) | 8 µg/mL (≈ 20.2 µM) | > 16 µg/mL | 64 µg/mL (≈ 161 µM) | > 16 µg/mL | 64 µg/mL (≈ 161 µM) | > 16 µg/mL | 8 µg/mL (≈ 20.2 µM) | CCn1cc(C(=O)O)c(=O)c2cc(F)c(N3CCNC(c4ccncc4)C3)cc21 (centres unmarked) [Example 123] | MIC [21]: 64 µg/mL (≈ 161 µM); MIC ([22]; 18 hours): 1 µg/mL (≈ 2.52 µM); MIC [22, 32]: 0.5 µg/mL (≈ 1.26 µM); MIC [30]: 2 µg/mL (≈ 5.05 µM); MIC [23]: 16 µg/mL (≈ 40.4 µM); MIC [24]: 0.5 µg/mL (≈ 1.26 µM); MIC [25]: 2 µg/mL (≈ 5.05 µM); MIC [26]: 8 µg/mL (≈ 20.2 µM); MIC [27]: > 16 µg/mL; MIC [28]: 8 µg/mL (≈ 20.2 µM); MIC [29]: 16 µg/mL (≈ 40.4 µM)
